Results reported in ChEMBL document CHEMBL1139581, “BCUT descriptors to predicting affinity toward A3 adenosine receptors” (Bioorg Med Chem Lett, 2005).

Molecular target: T1, Adenosine receptor A3 (Rattus norvegicus, UniProt P28647)
T1 sequence (P28647 whole entry): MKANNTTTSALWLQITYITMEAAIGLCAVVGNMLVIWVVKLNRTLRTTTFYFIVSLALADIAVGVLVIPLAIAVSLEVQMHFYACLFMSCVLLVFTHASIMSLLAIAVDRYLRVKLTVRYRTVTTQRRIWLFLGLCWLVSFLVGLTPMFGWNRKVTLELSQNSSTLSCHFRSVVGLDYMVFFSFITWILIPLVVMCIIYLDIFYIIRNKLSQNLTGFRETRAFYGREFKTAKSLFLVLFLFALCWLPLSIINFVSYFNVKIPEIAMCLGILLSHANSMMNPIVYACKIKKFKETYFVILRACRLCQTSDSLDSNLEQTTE
Experiment: Displacement of radioligand [125I]AB-MECA binding at rat A3 receptor expressed in CHO cells
Assay type: cell-based

Work on `CCNC(=O)[C@@H]1OC(n2cnc3c(NC(=O)Nc4ccc(S(=O)(=O)Nc5ncccn5)cc4)ncnc32)[C@@H](O)[C@H]1O` (some centres not stated) yielded a Ki of 405 nM.
Compound `CCNC(=O)[C@H]1OC(n2cnc3c(NC(=O)Nc4ccc(S(=O)(=O)Nc5ccccn5)cc4)ncnc32)[C@H](O)[C@@H]1O` (some centres not stated) has a Ki of 54.1 nM.
